From patent publication US9309263B2, “Fused multi-cyclic sulfone compounds as inhibitors of beta-secretase and methods of use thereof” (AMGEN INC., priority 2013, dated 2016)
Where two headings read alike, the source gives them in different places.

How the values were obtained:
Cathepsin D (Cat D) = Cathepsin D (Cat D) (Homo sapiens, UniProt P07339); assay: In vitro enzymatic Cathepsin D (Cat D) FRET assay; assay type: biochemical
Experimental: In Vitro Enzymatic Cathepsin D (Cat D) FRET (Fluorescence Resonance Energy Transfer) Assay
Recombinant Cat D was expressed in CHO cells. The assay buffer for CathepsinD is 0.05 M citrate pH 3.5, 10% DMSO final, 5 mM CHAPS. The Cat D enzyme (9 nM) is pre-incubated for one hour with inhibitors, typically in about 1 uL of DMSO according to a serial dilution, is added thereto. The assays are effectively started by the addition of different FRET substrates (20 nM for Cat D) and the combination is incubated for one hour. The FRET assay is terminated with by addition of Tris buffer, which raises the pH to neutrality, and the fluorescence is determined. The FRET substrate is a peptide with commercially available fluorophore and quencher, on opposite sides of the BACE cleavage site. The Cat D substrate peptide sequence is based on sequence #1 of Table 1 from Gulnik et al. FEBS Letters v413 p 379-384 1997. Proteolytic cleavage of the FRET substrate releases quenching of fluorescence (Cat D excitation 500 nm and emission 580 nm). […]
See, for instance, examples 8, 12, 15, 16, 18, 21-23, 24, 25, 26, 29, 30, 32, 41-42, 45, 53, 54, 57, 63, 67-69, 72-74, 76, 79-81, 83 & 84 (to point to just a few; referring to data in Table 2). […] See, for instance, examples 8, 12, 15, 18, 21-23, 25, 29, 30, 32, 41-42, 45, 54, 57, 67-68, 72-73, 76, 80-81, 84, 86, 91-92 & 100 (to point out those from compound examples 1-100; and with reference to data in Table 2).

[1] = biological target: Beta Secretase enzyme (BACE) (Homo sapiens, UniProt P56817); assay: In vitro enzymatic BACE FRET assay; assay type: biochemical; conditions: read-out: BACE1 FRET assay IC50
Experimental: In Vitro Enzymatic BACE FRET (Fluorescence Resonance Energy Transfer) Assay (Enzyme Assay Data in the Example Table I)
The assay buffer used in this screen is 0.05 M acetate, pH 4.2, 10% DMSO final, 100 uM genapol (which is a nonionic detergent, below its Critical Micelle Concentration). The Beta Secretase enzyme (0.2 nM) is pre-incubated for one hour with inhibitors, typically in about 1 uL of DMSO according to a serial dilution, are added thereto. This assay is effectively started by the addition of FRET substrate (50 nM) and the combination is incubated for one hour. The FRET assay is terminated with by addition of Tris buffer, which raises the pH to neutrality, and the fluorescence is determined. The FRET substrate is a peptide with commercially available fluorophore and quencher, on opposite sides of the BACE cleavage site. Proteolytic cleavage of the FRET substrate releases quenching of fluorescence (excitation 488 nm and […]).

[2] = tested on: Aβ 40 in conditioned medium of cells stably expressing Amyloid Precursor Protein (APP); assay: In vitro BACE cell-based assay (Aβ 40 sandwich ELISA); conditions: Homo sapiens, HEK293
Experimental: In Vitro BACE Cell-Based Assay
The cell-based assay measures inhibition or reduction of […] in conditioned medium of test compound treated cells expressing amyloid precursor protein.
Cells stably expressing Amyloid Precursor Protein (APP) were plated at a density of 40K cells/well in 96 well plates (Costar). The cells were cultivated for 24 hours at 37° C. and 5% CO2 in DMEM supplemented with 10% FBS. The test compounds were then added to cells in 10-point dose response concentrations with the starting concentration being either 100 μM or 10 μM. The compounds were diluted from stock solutions in DMSO and the final DMSO concentration of the test compounds on cells was 0.1%. After 24 h of incubation with the test compounds the supernatant conditioned media was collected and the Aβ 40 levels were determined using a sandwich ELISA. The IC50 of the compound was calculated from the percent of control or percent inhibition of Aβ 40 as a function of the concentration of the test compound.
The sandwich ELISA to detect Aβ 40 was performed in 96 well microtiter plates, which were pre-treated with goat anti-rabbit IgG (Pierce). The capture and detecting antibody pair that were used to detect Aβ 40 from cell supernatants were affinity purified pAb40 (Biosource) and biotinylated 6E10 (Signet Labs Inc.), respectively. The optimal concentration for the pAb40 antibody was 3 μg/ml in Superblock/TBS (Pierce) that was supplemented with 0.05% Tween 20 (Sigma). Optimal concentration for the detection antibody 6E10-biotinylated was 0.5 μg/ml in Superblock/TBS (Pierce) that had been supplemented with 2% normal goat serum and 2% normal mouse serum.
Cellular supernatants were incubated with the capture antibody for 3 h at 4° C., followed by 3 wash steps in TBS-tween (0.05%). The detecting antibody incubation was for 2 h at 4° C., again followed by the wash steps as described previously. The final readout of the ELISA is Time-Resolved Fluorescence (counts per minute) using Delfia reagents Streptavidin-Europium and Enhancement solutions (Perkin Elmer) and the Victor 2 multilabel counter (Perkin Elmer).

[3] = Cathepsin D FRET assay, read-out: CatD IC50
[4] = average IC50, in vitro enzymatic BACE FRET assay
[5] = average IC50, HEK cell assay, Aβ 40 readout

Sequence of Cathepsin D (Cat D) (P07339 65-412, species assumed): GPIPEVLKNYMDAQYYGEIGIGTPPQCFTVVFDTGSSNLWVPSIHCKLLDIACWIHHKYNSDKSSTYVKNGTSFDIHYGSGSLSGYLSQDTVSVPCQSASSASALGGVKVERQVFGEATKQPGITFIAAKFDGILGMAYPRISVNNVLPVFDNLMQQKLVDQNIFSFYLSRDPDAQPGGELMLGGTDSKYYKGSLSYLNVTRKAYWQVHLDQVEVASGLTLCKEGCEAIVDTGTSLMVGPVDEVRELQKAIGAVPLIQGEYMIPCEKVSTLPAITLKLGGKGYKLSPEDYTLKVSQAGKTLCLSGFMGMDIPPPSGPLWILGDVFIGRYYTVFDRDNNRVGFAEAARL
Sequence of Beta Secretase enzyme (BACE) (P56817 46-501): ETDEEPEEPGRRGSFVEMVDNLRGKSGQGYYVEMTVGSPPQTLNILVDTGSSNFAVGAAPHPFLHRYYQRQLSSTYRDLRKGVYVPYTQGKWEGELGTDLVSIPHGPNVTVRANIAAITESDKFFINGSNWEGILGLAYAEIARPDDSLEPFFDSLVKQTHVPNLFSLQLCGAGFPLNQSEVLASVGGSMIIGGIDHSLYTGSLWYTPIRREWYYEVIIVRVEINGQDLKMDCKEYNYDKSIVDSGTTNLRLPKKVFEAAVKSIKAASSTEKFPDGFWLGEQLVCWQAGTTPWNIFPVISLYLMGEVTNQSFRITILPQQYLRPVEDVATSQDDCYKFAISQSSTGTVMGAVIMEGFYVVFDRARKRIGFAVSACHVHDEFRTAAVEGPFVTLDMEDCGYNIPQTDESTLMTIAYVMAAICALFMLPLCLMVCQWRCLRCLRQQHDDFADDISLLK

IC50 (Cathepsin D (Cat D); [3]) [µM] | IC50 [1, 4] [µM] | IC50 [2, 5] [µM] | IC50 (Cathepsin D (Cat D); read-out: CatD IC50) [µM] | IC50 ([1]; average IC50) [µM] | IC50 ([2]; HEK cells, average IC50) [µM] | IC50 ([2]; HEK cell, average IC50) [µM] | IC50 (Cathepsin D (Cat D); text summary referring to data in Table 2) [µM] | SMILES
104 | 0.026 | 0.139 | – | – | – | – | – | CCCOc1cnc2c(Nc3ccc4c(c3)[C@@]3(C)N=C(N)C(C)(C)S(=O)(=O)[C@@H]3C[C@H](C)O4)nccc2n1 [Example 135, (4aR,6S,11bR)-3,3,6,11b-tetramethyl-N^~10^~-(2-propoxypyrido[3,4-b]pyrazin-5-yl)-4a,5,6,11b-tetrahydro-3H-[1]benzoxepino[4,5-b][1,4]thiazine-2,10-diamine 4,4-dioxide]
– | – | – | 44 | 0.009 | 0.003 | – | – | Cc1cc(Cl)cnc1C(=O)Nc1ccc2c(c1)[C@@]1(C)N=C(N)C(C)(C)S(=O)(=O)[C@H]1C[C@H](C)O2 [Example 183, N-((4aS,6S,11bR)-2-amino-3,3,6,11b-tetramethyl-4,4-dioxido-4a,5,6,11b-tetrahydro-3H-[1]benzoxepino[4,5-b][1,4]thiazin-10-yl)-5-chloro-3-methyl-2-pyridinecarboxamide]
– | – | – | 191 | 0.003 | 0.001 | – | – | Cc1cc(Cl)cnc1C(=O)Nc1ccc2c(c1)[C@@]1(C)N=C(N)C(C)(C)S(=O)(=O)[C@@H]1C[C@H](C)O2 [Example 189, N-((4aR,6S,11bR)-2-amino-3,3,6,11b-tetramethyl-4,4-dioxido-4a,5,6,11b-tetrahydro-3H-[1]benzoxepino[4,5-b][1,4]thiazin-10-yl)-5-chloro-3-methyl-2-pyridinecarboxamide]
– | – | – | 186 | 0.12 | – | 2.36 | – | CC#C[C@@H](C)Oc1cnc2c(Nc3ccc4c(c3)[C@@]3(C)N=C(N)C(C)(C)S(=O)(=O)[C@@H]3CCO4)ncc(F)c2c1 (single isomer, unassigned) [Example 71]
– | – | – | 1600 | 0.028 | 0.017 | – | – | CC1(C)C(N)=N[C@]2(C)c3cc(NC(=O)c4cnc(C(F)(F)F)cn4)ccc3OCC[C@H]2S1(=O)=O [Example 164, N-((4aR,11bR)-2-amino-3,3,11b-trimethyl-4,4-dioxido-4a,5,6,11b-tetrahydro-3H-[1]benzoxepino[4,5-b][1,4]thiazin-10-yl)-5-(trifluoromethyl)-2-pyrazinecarboxamide]
> 400 | – | 0.008 | – | – | – | – | – | CC#CCOc1cnc(C(=O)Nc2ccc3c(c2)[C@@]2(C)N=C(N)C(C)(C)S(=O)(=O)[C@]2(F)CCO3)cn1 [Example 94, N-((4aR,11bR)-2-amino-4a-fluoro-3,3,11b-trimethyl-4,4-dioxido-4a,5,6,11b-tetrahydro-3H-[1]benzoxepino[4,5-b][1,4]thiazin-10-yl)-5-(2-butyn-1-yloxy)-2-pyrazinecarboxamide]

Continued, compound first:

SMILES | IC50 (Cathepsin D (Cat D); [3]) [µM] | IC50 [1, 4] [µM] | IC50 [2, 5] [µM] | IC50 (Cathepsin D (Cat D); read-out: CatD IC50) [µM] | IC50 ([1]; average IC50) [µM] | IC50 ([2]; HEK cells, average IC50) [µM] | IC50 ([2]; HEK cell, average IC50) [µM] | IC50 (Cathepsin D (Cat D); text summary referring to data in Table 2) [µM]
Cc1cc(Cl)cnc1C(=O)Nc1ccc2c(c1)[C@@]1(C)N=C(N)C(C)(C)S(=O)(=O)[C@H]1C[C@@H](C)O2 [Example 181, N-((4aS,6R,11bR)-2-amino-3,3,6,11b-tetramethyl-4,4-dioxido-4a,5,6,11b-tetrahydro-3H-[1]benzoxepino[4,5-b][1,4]thiazin-10-yl)-5-chloro-3-methyl-2-pyridinecarboxamide] | – | – | – | 124 | 0.001 | 0.0008 | – | –
CC1(C)C(N)=N[C@]2(CF)c3cc(NC(=O)c4cnc(C(F)(F)F)cn4)ccc3OCC[C@H]2S1(=O)=O [Example 121, N-((4aR,11bS)-2-amino-11b-(fluoromethyl)-3,3-dimethyl-4,4-dioxido-4a,5,6,11b-tetrahydro-3H-[1]benzoxepino[4,5-b][1,4]thiazin-10-yl)-5-(trifluoromethyl)-2-pyrazinecarboxamide] | 995 | 0.184 | 0.21 | – | – | – | – | –
CC#CC(C)Oc1cnc(C(=O)Nc2ccc3c(c2)[C@@]2(C)N=C(N)C(C)(C)S(=O)(=O)[C@@H]2CCO3)cn1 (mixture of isomers) [Example 14, N-((4aR,11bR)-2-amino-3,3,11b-trimethyl-4,4-dioxido-4a,5,6,11b-tetrahydro-3H-[1]benzoxepino[4,5-b][1,4]thiazin-10-yl)-5-(((1R)-1-methyl-2-butyn-1-yl)oxy)-2-pyrazinecarboxamide,N-((4aR,11bR)-2-amino-3,3,11b-trimethyl-4,4-dioxido-4a,5,6,11b-tetrahydro-3H-[1]benzoxepino[4,5-b][1,4]thiazin-10-yl)-5-(((1S)-1-methyl-2-butyn-1-yl)oxy)-2-pyrazinecarboxamide] | – | – | – | 689 | 0.005 | – | 0.001 | –
COc1cnc(C(=O)Nc2ccc3c(c2)[C@@]2(C)N=C(N)C(C)(C)S(=O)(=O)[C@@H]2CC(C)(C)O3)cn1 [Example 100, N-((4aR,11bR)-2-amino-3,3,6,6,11b-pentamethyl-4,4-dioxido-4a,5,6,11b-tetrahydro-3H-[1]benzoxepino[4,5-b][1,4]thiazin-10-yl)-5-methoxy-2-pyrazinecarboxamide] | 1340 | 0.025 | 0.012 | – | – | – | – | > 1200
CC1(C)C[C@@H]2[C@](C)(N=C(N)C(C)(C)S2(=O)=O)c2cc(Nc3nccc4cc(C#N)cnc34)ccc2O1 [Example 112, 8-(((4aR,11bR)-2-amino-3,3,6,6,11b-pentamethyl-4,4-dioxido-4a,5,6,11b-tetrahydro-3H-[1]benzoxepino[4,5-b][1,4]thiazin-10-yl)amino)-1,7-naphthyridine-3-carbonitrile] | 316 | 0.003 | 0.002 | – | – | – | – | –
CC1(C)C(N)=N[C@]2(C)c3cc(Nc4nccc5cc(C#N)cnc45)ccc3OCC[C@H]2S1(=O)=O [Example 168, 8-(((4aR,11bR)-2-amino-3,3,11b-trimethyl-4,4-dioxido-4a,5,6,11b-tetrahydro-3H-[1]benzoxepino[4,5-b][1,4]thiazin-10-yl)amino)-1,7-naphthyridine-3-carbonitrile] | – | – | – | > 44.4 | 0.002 | 0.003 | – | –
Cc1cc(Cl)cnc1C(=O)Nc1cnc2c(c1)[C@@]1(C)N=C(N)C(C)(C)S(=O)(=O)[C@H]1CCO2 [Example 20, N-((4aS,11bR)-2-amino-3,3,11b-trimethyl-4,4-dioxido-4a,5,6,11b-tetrahydro-3H-pyrido[3′,2′:6,7]oxepino[4,5-b][1,4]thiazin-10-yl)-5-chloro-3-methyl-2-pyridinecarboxamide] | – | – | – | 377 | 0.019 | – | 0.022 | –
CC1(C)C(N)=N[C@]2(C)c3cc(NC(=O)c4ccc(OCC#N)cn4)ccc3OCC[C@H]2S1(=O)=O [Example 126, N-((4aR,11bR)-2-amino-3,3,11b-trimethyl-4,4-dioxido-4a,5,6,11b-tetrahydro-3H-[1]benzoxepino[4,5-b][1,4]thiazin-10-yl)-5-(cyanomethoxy)-2-pyridinecarboxamide] | > 1.65 | 0.017 | 0.034 | – | – | – | – | –
